Results as given in patent publication US11160869B2 (priority 2019, dated 2021).

How the values were obtained:
[1] = Surfactant evaluation under shear stress (vortex 800 rpm 4 h): visual, turbidity, SEC-HPLC; type: physicochemical; conditions: for effect of surfactant on IL-10 delivery construct forms (SEC-HPLC): 1xPBS, before/after vortexing
Description: Following vortexing, the solution was visually inspected. The sample without a surfactant was slightly hazy while the samples with the surfactant were clear after vortexing. The turbidity (340-360 nm) of the solution was assessed after vortexing.
SEC-HPLC was carried out on the IL-10 delivery construct formulations before (FIG. 93) and after (FIG. 94) vortexing (TABLE 48).

[2] = test system: growth factors, chemokines and cytokines; type: in vivo, mice; conditions: mouse, in vivo
[3] = test system: STAT3; assay: pSTAT3/total STAT3 in colon tissue of non-inflamed mice (ELISA MSD); type: in vivo; conditions: construct 1 mg/kg; rhIL-10 0.9 mg/kg; oral
[4] = test system: IL-1Ra; assay: Systemic IL-1Ra in non-inflamed mice (ELISA MSD); type: in vivo; conditions: construct 10 mg/kg; rhIL-10 3 mg/kg; oral
[5] = target: T1, IL-10RA and IL-10RB (Homo sapiens, UniProt Q08334+Q13651); assay: IL-10 receptor dimerization luminescence assay in engineered U2OS cells; conditions: 6 h
T1 sequence (Q13651 22-578): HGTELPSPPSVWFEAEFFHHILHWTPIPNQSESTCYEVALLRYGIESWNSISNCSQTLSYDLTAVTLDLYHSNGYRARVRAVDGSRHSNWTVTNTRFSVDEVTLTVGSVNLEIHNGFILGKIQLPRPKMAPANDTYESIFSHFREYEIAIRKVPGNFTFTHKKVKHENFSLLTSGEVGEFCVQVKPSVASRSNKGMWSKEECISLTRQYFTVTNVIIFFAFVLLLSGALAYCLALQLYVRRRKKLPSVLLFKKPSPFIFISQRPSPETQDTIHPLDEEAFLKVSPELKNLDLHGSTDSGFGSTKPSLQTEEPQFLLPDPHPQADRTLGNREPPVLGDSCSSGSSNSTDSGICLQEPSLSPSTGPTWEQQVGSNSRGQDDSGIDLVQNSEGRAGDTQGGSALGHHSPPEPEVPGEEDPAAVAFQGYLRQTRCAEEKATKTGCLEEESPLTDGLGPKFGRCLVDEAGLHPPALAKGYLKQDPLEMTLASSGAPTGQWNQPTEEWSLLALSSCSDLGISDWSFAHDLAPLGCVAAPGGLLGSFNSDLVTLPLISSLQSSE
T1 sequence (Q08334 20-325): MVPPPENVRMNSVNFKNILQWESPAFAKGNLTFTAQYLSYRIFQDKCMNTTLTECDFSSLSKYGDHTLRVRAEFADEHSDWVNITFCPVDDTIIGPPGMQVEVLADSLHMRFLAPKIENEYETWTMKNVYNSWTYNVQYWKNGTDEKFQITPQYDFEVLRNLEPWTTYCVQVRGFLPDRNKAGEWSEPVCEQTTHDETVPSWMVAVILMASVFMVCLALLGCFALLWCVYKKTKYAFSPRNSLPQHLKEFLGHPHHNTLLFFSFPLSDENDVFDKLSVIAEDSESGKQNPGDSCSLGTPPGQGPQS

[6] = Intraluminal injection in T-cell transfer model: rhIL-10 ELISA in intestinal tissue and serum; type: in vivo, BALB/c and SCID mice; conditions: intraluminal injection
Description: This study was conducted to examine the potential for the carrier protein to transport rhIL-10 from the intestinal lumen into the submucosal region in inflamed intestinal tissue. The T lymphocyte (T cell) transfer model was used as it is a well-established model of induced chronic colitis in mice and presents many of the essential immunological hallmarks observed in IBD patients. Nine BALB/c mice and twelve SCID mice, including nine with the colitis-like model of inflammation, were dosed with 20 μl of test article via intraluminal injection into the distal ileum and the proximal, middle and distal colon. […] In each group, two mice were terminated 10 minutes after intraluminal injections, and one was terminated 40 minutes after intraluminal injections. Intestinal tissue and serum were collected. Collected tissue was fixed, embedded, sectioned and H&E stained for histological assessment of inflammatory status. ELISA analysis to measure rhIL 10 was performed on lysates prepared from intestinal tissue and serum (FIGS. 106A-106D).

[7] = test system: STAT3; assay: pSTAT3 induction and hIL-10 in intestinal tissue 40 min after oral gavage, immunofluorescence and image analysis; type: in vivo, rat; conditions: 40 min post oral gavage
Description: This observation is consistent with findings in mice that intestinal epithelial cells can express IL-10 receptors at their apical surface under certain conditions associated with development and maintenance of barrier function. […] In order to quantify how test articles affected intestinal IL-10 signal transduction pathways, image analysis was performed: high-throughput image batches were collected, segmented by epithelial versus lamina propria localization, and then by cellular features.

[8] = test system: STAT3; assay: STAT3 phosphorylation in J774.2 macrophage cells
[9] = Single oral capsule dose in NHP: plasma caffeine by LC-MS/MS; type: in vivo, Macaca fascicularis
Description: In order to quantitate plasma caffeine levels, an LC-MS/MS detection system was employed. A 25-μL matrix aliquot was fortified with 25 μL of 2.00 μg/mL caffeine-trimethyl-^13C3 internal standard working solution. Analytes were isolated through supported liquid extraction (SLE). A portion of the eluate was transferred and evaporated under a nitrogen stream at approximately 45° C., and the remaining residue reconstituted with 500 μL of water/acetonitrile (95:5, v/v). The final extract was analyzed via HPLC with MS/MS detection using positive ion electrospray and reverse phase chromatography. Caffeine concentration was determined using similarly run calibration controls.
IL-10 delivery construct dosing at multiple fixed doses in non-naïve adult male Macaca fascicularis was conducted by Valley Biosystems (West Sacramento, Calif.). […] Dosing groups are described in TABLE 45.

polysorbate 20
absorbance in the 340-360 nm range after vortexing ([1]; 0.1% in 1xPBS): increase in absorbance was also observed
effect of surfactant on IL-10 delivery construct forms (SEC-HPLC) [1]: most amount of monomer before vortexing

Nc1ccc(O)c(C(=O)O)c1 [5-ASA, 5-aminosalicylic acid, reference compound]
oxazolone-induced increase in plasma GCSF/CSF3 [2]: attenuated

rhIL-10: recombinant human IL-10, commercial preparation, comparator [reference compound]
increase in ratio of pSTAT3 to total STAT3 [3]: did not significantly alter
increase of systemic IL-1Ra [4]: did not significantly increase
EC50 ([5]; read-out: EC50, IL-10R dimerization): 0.0915 nM
rhIL-10 in serum of inflamed animals [6]: minimal amounts of rhIL-10 were detected
hIL-10 and pSTAT3 in intestinal tissue [7]: exhibited pSTAT3 induction in enterocytes but not in cells within the lamina propria
amplitude of pSTAT3/total STAT3 [8]: 2.19%

polysorbate 80
effect of surfactant on IL-10 delivery construct forms (SEC-HPLC) [1]: increase in HMW aggregates and monomers

Cn1c(=O)c2c(ncn2C)n(C)c1=O [caffeine]
time at which absorption of caffeine was observable (capsule opening) ([9]; all doses): 2-3 hours post dose
Cmax ([9]; male, cynomolgus monkey, plasma, po, 1 mg dosing group, 1x10 mg caffeine): 1350 ng/mL
Cmax ([9]; male, cynomolgus monkey, plasma, po, 20.5 mg dosing group, 1x10 mg caffeine): 800 ng/mL
Cmax ([9]; male, cynomolgus monkey, plasma, po, 82 mg dosing group, 4x10 mg caffeine): 3790 ng/mL
Cmax ([9]; male, cynomolgus monkey, plasma, po, 4x10 mg caffeine): 6120 ng/mL
Tmax ([9]; male, cynomolgus monkey, plasma, po, all doses): 4 h

B1: cholix derived carrier: truncated non-toxic cholix variant of 386 amino acids, carrier alone (protein)
chain: VEEALNIFDECRSPCSLTPEPGKPIQSKLSIPSDVVLDEGVLYYSMTINDEQNDIKDEDKGESIITIGEFATVRATRHYVNQDAPFGVIHLDITTENGTKTYSYNRKEGEFAINWLVPIGEDSPASIKISVDELDQQRNIIEVPKLYSIDLDNQTLEQWKTQGNVSFSVTRPEHNIAISWPSVSYKAAQKEGSRHKRWAHWHTGLALCWLVPMDAIYNYITQQNCTLGDNWFGGSYETVAGTPKVITVKQGIEQKPVEQRIHFSKGNAMSALAAHRVCGVPLETLARSRKPRDLTDDLSCAYQAQNIVSLFVATRILFSHLDSVFTLNLDEQEPEVAERLSDLRRINENNPGMVTQVLTVARQIYNDYVTHHPGLTPEQTSAGAQA
EC50, IL-10R dimerization [5]: did not induce IL-10R dimerization
